Test results published in patent publication US20070014803A1, “METHODS AND COMPOSITIONS FOR DIAGNOSIS AND TREATMENT OF VIRAL AND BACTERIAL INFECTIONS” (Arbor Vita Corporation, priority 2005, published 2007).
Like-named read-outs stand apart in the source and are kept apart here. Where no end group is shown, it is not given here.

Columns and labels:
MAST2 = molecular target: T1, MAST2 (Homo sapiens, UniProt Q6P0Q8); experiment: MATRIX screen against PDZ library (modified G assay); type: binding; conditions: pre-incubation conditions
T1 construct: made in house
Procedure: (§1) Matrix graphPeptides and proteins were tested in an array format constituting a near complete set (255) of all the different PDZ domains in the human genome. Each PDZ domain polypeptide was expressed as a recombinant GST-PDZ polypeptide in a commercial glutathione S-transferase tagged expression system. Specific binding of biotinylated-PL peptides to PDZ domain polypeptides was detected using streptavidin-HRP and TMB substrate. Similarly, specific binding of PL protein-MBP fusion proteins to PDZ domain polypeptides was visualized using biotinylated anti-MBP, streptavidin-HRP and TMB substrate. The relative strength of binding was analyzed and the strong and weak binders are shown for each PL. A PDZ protein that binds more strongly is preferable when used for capturing or identifying PL proteins.
(§2) Two different types of ELISA assays were used to test the HIV Peptides 1904 and 1905. The primary MATRIX screen against all PDZ proteins in the library was performed under pre-incubation conditions, which are a modification of the G assay. A pre-incubation assay incubates the peptide with the HRP-streptavidin before addition of the mixture to the PDZ-coated plate. The subsequent titrations of the peptide against the PDZs of interest were performed under normal ELISA G assay conditions. In normal conditions the peptide is incubated on the PDZ coated plate before the later addition of the HRP-streptavidin. The reagents and supplies for both assays are listed below, as well as the two different protocols.
(§3) The PRISM Matrix ELISA modified G Assay was also used for pre-incubation and for the MATRIX assay. The protocol was as follows.
(§4) 1. Coat plate with 100 μl of 5 μg/ml anti-GST, O/N @ 4° C.
(§5) 2. Dump contents out of plate and tap dry on paper towels
(§6) 3. Block with 200 μl Assay Buffer for 1 to 2 hrs at room temperature
(§7) 4. Prepare proteins in Assay Buffer
(§8) 5. Wash plate 3× with cold PBS*
(§9) 6. Add proteins at 50 μl per well, incubate 1 to 2 hrs at 4° C.
(§10) 7. Prepare peptides in Assay Buffer:
(§11) • Prepare peptides in half of volume need with double of desired concentration. • Dilute HRP (1:1000) in another half of volume (same volume with peptide) then mix with peptides. • Incubate the peptide-HRP mixtures for 20 minutes at RT 8. Wash plate 3× with cold PBS* 9. Add peptide-HRP mixtures at 50 μl per well (write time on plate) 10. Incubate at RT after last peptide has been added for exactly 30 minutes 11. Turn on plate reader and prepare files 12. Promptly wash plate 5× with room temperature PBS 13. Add 100 μl/well TMB substrate (write time on plate) 14. Incubate in dark at room temp for a maximum of 30 minutes 15. Stop reaction with 100 μl of 0.18M H2SO4, 30 min. after adding TMB 16. Take last reading at 450 nm soon after stopping reaction

PAR3 d3 = molecular target: T2, PAR3 d3 (Homo sapiens, UniProt Q8TEW0, R682S); experiment: as above; type: binding; conditions: pre-incubation conditions
T2 construct: made in house
Procedure: as §1, §2, §3, §4, §5, §6, §7, §8, §9, §10, §11

KIAA1284 = molecular target: T3, KIAA1284 (Homo sapiens, UniProt Q9ULD6); experiment: as above; type: binding; conditions: pre-incubation conditions
T3 construct: made in house
Procedure: as §1, §2, §3, §4, §5, §6, §7, §8, §9, §10, §11

SIP1 d1 = molecular target: T4, SIP1 d1 (Homo sapiens, UniProt Q15599); experiment: as above; type: binding; conditions: pre-incubation conditions
T4 construct: made in house
Procedure: as §1, §2, §3, §4, §5, §6, §7, §8, §9, §10, §11

NSP = molecular target: T5, NSP (Homo sapiens, UniProt Q92743); experiment: as above; type: binding; conditions: pre-incubation conditions
T5 construct: made in house
Procedure: as §1, §2, §3, §4, §5, §6, §7, §8, §9, §10, §11

Tip = molecular target: T6, Tip (Homo sapiens, UniProt O14907); experiment: as above; type: binding; conditions: pre-incubation conditions
T6 construct: made in house
Procedure: as §1, §2, §3, §4, §5, §6, §7, §8, §9, §10, §11

EBP50 = molecular target: T7, EBP50 (Homo sapiens, UniProt O14745); experiment: as above; type: binding; conditions: pre-incubation conditions
T7 construct: made in house
Procedure: as §1, §2, §3, §4, §5, §6, §7, §8, §9, §10, §11

Shank 1 = molecular target: T8, Shank 1 (Homo sapiens, UniProt Q9Y566); experiment: as above; type: binding; conditions: pre-incubation conditions
T8 construct: made in house
Procedure: as §1, §2, §3, §4, §5, §6, §7, §8, §9, §10, §11

EBP50 d1 = molecular target: T9, EBP50 d1 (Homo sapiens, UniProt O14745); experiment: as above; type: binding; conditions: pre-incubation conditions
T9 construct: made in house
Procedure: as §1, §2, §3, §4, §5, §6, §7, §8, §9, §10, §11

PICK1 F.L. = molecular target: T10, PICK1 F.L. (Homo sapiens, UniProt Q9NRD5); experiment: as above; type: binding; conditions: pre-incubation conditions
T10 construct: PICK1 F.L; made in house
Procedure: as §1, §2, §3, §4, §5, §6, §7, §8, §9, §10, §11

PDZ protein Rim2 = molecular target: T11, PDZ protein Rim2 (Homo sapiens, UniProt Q9UQ26); experiment: PRISM Matrix ELISA modified G assay (pre-incubation), peptide titration; conditions: read-out: EC50 of binding to the PDZ protein Rim2
T11 construct: made in house
T11 sequence (Q9UQ26 632-757): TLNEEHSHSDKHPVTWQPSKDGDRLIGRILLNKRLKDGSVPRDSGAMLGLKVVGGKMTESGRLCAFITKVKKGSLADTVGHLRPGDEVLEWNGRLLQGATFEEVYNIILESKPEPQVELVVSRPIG
Procedure: as §2, §3, §4, §5, §6, §7, §8, §9, §10, §11

[1] = molecular target: T12, PDZ protein ZO-1 d2 (domain 2) (Homo sapiens, UniProt Q07157, DEL264-264); experiment: as above; conditions: read-out: EC50 of binding to the PDZ protein ZO-1 d2
T12 construct: made in house
T12 sequence (Q07157 with tags, fused parts or gaps DEL264-264): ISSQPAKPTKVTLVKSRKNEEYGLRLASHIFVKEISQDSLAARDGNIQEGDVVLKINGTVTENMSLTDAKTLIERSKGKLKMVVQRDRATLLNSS
Procedure: as §2, §3, §4, §5, §6, §7, §8, §9, §10, §11

PDZ protein NSP = molecular target: T13, PDZ protein NSP (Homo sapiens, UniProt Q92743); experiment: as above; conditions: read-out: EC50 of binding to the PDZ protein NSP
T13 construct: made in house
Procedure: as §2, §3, §4, §5, §6, §7, §8, §9, §10, §11

KIAA0316 = molecular target: T14, KIAA0316 (Homo sapiens, UniProt Q14CM0, A161E); experiment: MATRIX screen against PDZ library (modified G assay); type: binding; conditions: pre-incubation conditions
T14 construct: made in house
Procedure: as §1, §2, §3, §4, §5, §6, §7, §8, §9, §10, §11

PAR6 beta = molecular target: T15, PAR6 beta (Homo sapiens, UniProt Q9BYG5); experiment: as above; type: binding; conditions: pre-incubation conditions
T15 construct: made in house
Procedure: as §1, §2, §3, §4, §5, §6, §7, §8, §9, §10, §11

SITAC-18 d1 = molecular target: T16, SITAC-18 d1 (Homo sapiens, UniProt Q9H190); experiment: as above; type: binding; conditions: pre-incubation conditions
T16 construct: made in house
Procedure: as §1, §2, §3, §4, §5, §6, §7, §8, §9, §10, §11

INADL d3 = molecular target: T17, INADL d3 (Homo sapiens, UniProt Q8NI35); experiment: as above; type: binding; conditions: pre-incubation conditions
T17 construct: made in house
Procedure: as §1, §2, §3, §4, §5, §6, §7, §8, §9, §10, §11

AIPC d1 = molecular target: T18, AIPC d1 (Homo sapiens, UniProt O15018); experiment: as above; type: binding; conditions: pre-incubation conditions
T18 construct: made in house
Procedure: as §1, §2, §3, §4, §5, §6, §7, §8, §9, §10, §11

ZO-1 d4 = molecular target: T19, ZO-1 d4 (Homo sapiens, UniProt Q07157); experiment: as above; type: binding; conditions: pre-incubation conditions
T19 construct: ZO-1 d4; made in house
Procedure: as §1, §2, §3, §4, §5, §6, §7, §8, §9, §10, §11

MUPP1d11 = molecular target: T20, MUPP1d11 (Homo sapiens, UniProt O75970); experiment: as above; type: binding; conditions: pre-incubation conditions
T20 construct: made in house
Procedure: as §1, §2, §3, §4, §5, §6, §7, §8, §9, §10, §11

RIM2 = molecular target: T21, RIM2 (Homo sapiens, UniProt Q9UQ26); experiment: as above; type: binding; conditions: pre-incubation conditions
T21 construct: made in house
Procedure: as §1, §2, §3, §4, §5, §6, §7, §8, §9, §10, §11

[2] = modified G assay titration (FIG. 2C, FIG. 3C)
[3] = modified G assay titration (FIG. 2B, FIG. 3B)
[4] = modified G assay titration (FIG. 2D, FIG. 3D)

T13 sequence (Q92743 359-473): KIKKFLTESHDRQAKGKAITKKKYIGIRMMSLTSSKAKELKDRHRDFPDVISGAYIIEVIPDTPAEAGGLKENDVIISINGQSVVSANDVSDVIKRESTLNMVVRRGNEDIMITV
T2 sequence (Q8TEW0 with tags, fused parts or gaps R682S): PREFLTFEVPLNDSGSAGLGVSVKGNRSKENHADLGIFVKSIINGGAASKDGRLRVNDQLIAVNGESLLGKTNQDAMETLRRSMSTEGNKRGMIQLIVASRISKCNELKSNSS
T1 sequence (Q6P0Q8 with tags, fused parts or gaps): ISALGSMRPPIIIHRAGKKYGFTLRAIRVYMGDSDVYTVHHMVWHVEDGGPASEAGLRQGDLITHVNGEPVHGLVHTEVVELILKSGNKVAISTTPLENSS
T4 sequence (Q15599 with tags, fused parts or gaps): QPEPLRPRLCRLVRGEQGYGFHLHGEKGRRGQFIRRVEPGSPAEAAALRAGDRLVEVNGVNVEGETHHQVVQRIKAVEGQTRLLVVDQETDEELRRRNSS
T3 sequence (Q9ULD6 159-271): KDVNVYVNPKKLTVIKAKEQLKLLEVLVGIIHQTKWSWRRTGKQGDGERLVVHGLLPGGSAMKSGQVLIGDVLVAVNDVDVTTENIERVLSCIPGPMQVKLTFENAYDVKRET
T5 sequence (Q92743 359-473): as the sequence (Q92743 359-473) above
T9 sequence (O14745 with tags, fused parts or gaps): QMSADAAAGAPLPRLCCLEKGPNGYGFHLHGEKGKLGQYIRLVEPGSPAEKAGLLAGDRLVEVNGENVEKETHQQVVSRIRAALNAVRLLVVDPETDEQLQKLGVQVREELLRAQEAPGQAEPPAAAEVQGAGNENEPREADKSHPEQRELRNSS
T17 sequence (Q8NI35 with tags, fused parts or gaps): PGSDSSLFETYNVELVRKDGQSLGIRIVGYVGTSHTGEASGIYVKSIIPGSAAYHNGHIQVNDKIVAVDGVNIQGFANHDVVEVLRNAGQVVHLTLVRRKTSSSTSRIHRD
T16 sequence (Q9H190 104-195): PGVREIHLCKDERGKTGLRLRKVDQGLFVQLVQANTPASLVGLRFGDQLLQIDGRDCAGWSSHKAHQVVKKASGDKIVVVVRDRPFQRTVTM
T7 sequence (O14745 whole entry): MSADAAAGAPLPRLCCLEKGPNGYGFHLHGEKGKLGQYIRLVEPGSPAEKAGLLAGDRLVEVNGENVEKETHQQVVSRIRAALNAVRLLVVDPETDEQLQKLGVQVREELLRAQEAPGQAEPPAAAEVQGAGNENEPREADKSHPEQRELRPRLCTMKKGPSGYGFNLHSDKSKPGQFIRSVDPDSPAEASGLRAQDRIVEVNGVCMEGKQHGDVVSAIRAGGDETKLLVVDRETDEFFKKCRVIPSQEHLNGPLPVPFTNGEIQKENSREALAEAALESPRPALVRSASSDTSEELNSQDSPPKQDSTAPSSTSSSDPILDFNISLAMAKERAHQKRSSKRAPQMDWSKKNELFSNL
T14 sequence (Q14CM0 with tags, fused parts or gaps A161E): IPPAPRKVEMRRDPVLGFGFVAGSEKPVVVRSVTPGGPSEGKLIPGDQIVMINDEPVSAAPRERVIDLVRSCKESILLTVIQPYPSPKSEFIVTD
T8 sequence (Q9Y566 with tags, fused parts or gaps): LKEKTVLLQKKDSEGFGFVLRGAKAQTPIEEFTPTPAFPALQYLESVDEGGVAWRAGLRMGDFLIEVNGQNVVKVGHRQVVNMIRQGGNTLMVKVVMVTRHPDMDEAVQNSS
T18 sequence (O15018 with tags, fused parts or gaps): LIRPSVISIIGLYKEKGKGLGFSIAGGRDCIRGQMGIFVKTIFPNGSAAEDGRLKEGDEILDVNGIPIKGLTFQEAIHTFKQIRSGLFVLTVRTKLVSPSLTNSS
T15 sequence (Q9BYG5 with tags, fused parts or gaps): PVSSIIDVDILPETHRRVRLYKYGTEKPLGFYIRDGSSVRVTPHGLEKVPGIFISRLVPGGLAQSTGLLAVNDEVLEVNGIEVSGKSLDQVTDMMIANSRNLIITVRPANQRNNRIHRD
T10 sequence (Q9NRD5 whole entry): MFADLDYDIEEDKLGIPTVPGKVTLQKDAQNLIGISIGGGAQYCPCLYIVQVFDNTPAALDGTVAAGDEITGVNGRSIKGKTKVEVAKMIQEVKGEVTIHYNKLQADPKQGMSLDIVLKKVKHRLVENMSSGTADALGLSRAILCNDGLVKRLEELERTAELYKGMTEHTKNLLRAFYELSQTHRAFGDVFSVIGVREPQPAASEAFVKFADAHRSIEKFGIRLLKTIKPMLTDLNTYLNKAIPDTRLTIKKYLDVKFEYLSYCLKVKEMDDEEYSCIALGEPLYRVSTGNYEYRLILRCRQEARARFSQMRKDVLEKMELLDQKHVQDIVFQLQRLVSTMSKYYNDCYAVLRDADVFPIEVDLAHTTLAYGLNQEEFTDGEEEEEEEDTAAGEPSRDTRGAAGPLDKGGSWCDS
T19 sequence (Q07157 178-269 limits assumed): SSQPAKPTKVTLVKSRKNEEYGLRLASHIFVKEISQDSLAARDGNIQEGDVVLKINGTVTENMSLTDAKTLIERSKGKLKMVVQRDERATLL
T6 sequence (O14907 15-112): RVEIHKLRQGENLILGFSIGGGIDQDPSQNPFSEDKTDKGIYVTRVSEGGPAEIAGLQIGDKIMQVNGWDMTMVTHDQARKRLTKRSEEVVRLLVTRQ
T20 sequence (O75970 1716-1813): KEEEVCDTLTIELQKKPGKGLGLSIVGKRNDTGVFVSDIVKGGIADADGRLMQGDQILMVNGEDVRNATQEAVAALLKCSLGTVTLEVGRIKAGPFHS

| Substance | Intensity of Hit, PDZ MAST2 (MAST2) | Intensity of Hit, PDZ PAR3 d3 (PAR3 d3) | Intensity of Hit, PDZ KIAA1284 (KIAA1284) | Intensity of Hit, PDZ SIP1 d1 (SIP1 d1) | Intensity of Hit, PDZ NSP (NSP) | EC50 (PDZ protein Rim2; [2]) [nM] | EC50 [1, 3] [nM] | EC50 (PDZ protein NSP; [4]) [nM] | other results |
| --- | --- | --- | --- | --- | --- | --- | --- | --- | --- |
| YGRKKRRQRRRRQGFERALL-OH [Peptide 1905] | STRONG | STRONG | STRONG | STRONG | STRONG | 14 | 2.8 | 8 | Intensity of Hit, PDZ Tip (Tip): STRONG; Intensity of Hit, PDZ EBP50 (EBP50): STRONG; Intensity of Hit, PDZ Shank 1 (Shank 1): STRONG; Intensity of Hit, PDZ EBP50 d1 (EBP50 d1): STRONG; Intensity of Hit, PDZ PICK1 F.L. (PICK1 F.L.): STRONG; EC50 (PDZ protein Rim2; modified G assay titration, third experiment (FIG. 5, printed as FIG. 3C)): 68 nM; EC50 ([1]; modified G assay titration, third experiment (FIG. 5B)): 36 nM; EC50 (PDZ protein NSP; modified G assay titration, third experiment (FIG. 5, printed as FIG. 3D)): 30 nM |
| YGRKKRRQRRRRQGLERILL-OH [Peptide 1904] | STRONG | STRONG | STRONG | WEAK | STRONG | 30 | 25 | 14.9 | Intensity of Hit, PDZ KIAA0316 (KIAA0316): STRONG; Intensity of Hit, PDZ PAR6 beta (PAR6 beta): STRONG; Intensity of Hit, PDZ SITAC-18 d1 (SITAC-18 d1): STRONG; Intensity of Hit, PDZ INADL d3 (INADL d3): STRONG; Intensity of Hit, PDZ AIPC d1 (AIPC d1): STRONG; Intensity of Hit, PDZ ZO-1 d4 (ZO-1 d4): STRONG; Intensity of Hit, PDZ MUPP1d11 (MUPP1d11): STRONG; Intensity of Hit, PDZ RIM2 (RIM2): STRONG |
